In PubChem BioAssay (NCI):
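Test compounds were applied to cells in 96-well plates for 48 hours at 5 doses. At the GI50, growth is halved. The concentration for full growth arrest is given as TGI.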

Key:
Test in all cases: DTP human tumour cell line panel, 48 h
[1] = system: NCI-H522 lung
[2] = system: 786-0 renal
[3] = system: NCI-H23 lung
[4] = system: OVCAR-3 ovarian
[5] = system: OVCAR-4 ovarian
[6] = system: A498 renal
[7] = system: CAKI-1 renal
[8] = system: MOLT-4 leukemia
[9] = system: HT29 colon
[10] = system: A549 NSCLC

| Structure (SMILES) | GI50 [1] | TGI [1] | GI50 [2] | TGI [2] | GI50 [3] | TGI [3] | GI50 [4] | TGI [4] | GI50 [5] | TGI [5] | GI50 [6] | TGI [6] | GI50 [7] | TGI [7] | GI50 [8] | TGI [8] | GI50 [9] | TGI [9] | GI50 [10] | TGI [10] |
| --- | --- | --- | --- | --- | --- | --- | --- | --- | --- | --- | --- | --- | --- | --- | --- | --- | --- | --- | --- | --- |
| CC12CCC=CC1CCC1C2CCC2(C)C(c3ccc(=O)oc3)CCC12O (stereo not given) | 0.0398 µM | 0.283 µM | 0.0618 µM | 0.357 µM | 0.0492 µM | 0.302 µM | 0.0614 µM | 0.258 µM | 0.167 µM | 0.641 µM | 0.0496 µM | 0.457 µM | 0.0942 µM | 0.548 µM | 0.0282 µM | 0.0967 µM | 0.0516 µM | 0.801 µM | 0.0295 µM | 0.111 µM |
| Cc1ccc2[nH]c(C(=O)NN3C(=O)CSC34CCCCC4C)c(-c3ccccc3)c2c1 (stereo not given) | 13.1 µM | 27.9 µM | 17.3 µM | 37.9 µM | 17 µM | 33.2 µM | 13.9 µM | 30.1 µM | 16.5 µM | 34.2 µM | 17.6 µM | 34.5 µM | 16.1 µM | 32.2 µM | 9.38 µM | 28.4 µM | 14.4 µM | 36.9 µM | 13.2 µM | 28.2 µM |
| CCc1ccc(NC(=O)Nc2c[nH]c3ccccc23)cc1 | 1.18 µM | 2.67 µM | 8.55 µM | > 81.9 µM | 36.3 µM | > 54.1 µM | 2.47 µM | > 32.2 µM | 10.1 µM | > 54.7 µM | > 46 µM | > 72.8 µM | 3.59 µM | > 42 µM | 1.85 µM | > 100 µM | > 43.5 µM | > 61.2 µM | 6.26 µM | > 48 µM |
| COc1cc2nc(Cl)nc(Nc3cccc(C(=O)/C=C/c4ccccc4)c3)c2cc1OC | 3.09 µM | 52.6 µM | 3.05 µM | 15 µM | 6.63 µM | > 100 µM | 3.75 µM | 31.3 µM | 5.5 µM | 33.3 µM | > 25 µM | > 66.5 µM | 4.17 µM | 35.4 µM | 2.77 µM | > 100 µM | 4.39 µM | > 100 µM | > 38.7 µM | > 100 µM |
| C=C(C)[C@@H]1CC[C@]2(C(=O)NCCCN)CC[C@]3(C)[C@H](CC[C@@H]4[C@@]5(C)CC[C@H](O)C(C)(C)[C@@H]5CC[C@]43C)[C@@H]12 | 21 µM | 68.9 µM | 23.2 µM | 63.4 µM | 22.6 µM | 87.1 µM | 15.7 µM | 39.5 µM | 25.6 µM | > 100 µM | 22.9 µM | 49.2 µM | 21.9 µM | > 100 µM | 12.9 µM | 52.8 µM | 6.95 µM | 38.4 µM | 19.6 µM | 66.5 µM |
| Fc1ccc(-c2nc3n(c2-c2ccncc2)CCS3)cc1 | > 25 µM | > 25 µM | > 25 µM | > 25 µM | > 25 µM | > 25 µM | > 25 µM | > 25 µM | 9.67 µM | > 25 µM | > 25 µM | > 25 µM | > 25 µM | > 25 µM | > 25 µM | > 25 µM | > 25 µM | > 25 µM | > 25 µM | > 25 µM |
| CCCN(Cc1ccc(F)cc1)c1ccc(CO)c(Cl)c1 | 9.5 µM | 22.6 µM | 4.77 µM | 19.7 µM | 4.24 µM | 20.2 µM | 0.662 µM | 4.02 µM | 0.4 µM | 7.9 µM | 0.0236 µM | 0.102 µM | 1.47 µM | 13.6 µM | 11.2 µM | 30.1 µM | 4.78 µM | 16.4 µM | 2.12 µM | 16.5 µM |
| CCN(CC)CCOc1ccc(C(=C(C)c2ccc(Cl)cc2)c2ccc(OCCN(CC)CC)cc2)cc1 | 0.591 µM | 1.25 µM | 0.597 µM | 1.12 µM | 1.88 µM | 6.41 µM | 0.643 µM | 1.36 µM | 0.586 µM | 1.32 µM | 1.79 µM | 6.12 µM | 0.504 µM | 1.02 µM | 0.674 µM | 1.5 µM | 0.578 µM | 1.27 µM | 0.632 µM | 1.31 µM |
| CC[C@H](Nc1nc(N)nc(C)c1C#N)c1nc2cccc(CN(C)c3ncc(C(=O)NO)cn3)c2c(=O)n1-c1ccccc1 | 0.174 µM | 4.27 µM | 1.53 µM | 6.47 µM | 1.14 µM | 5.32 µM | 0.761 µM | 2.28 µM | 1.01 µM | 6.56 µM | 0.295 µM | 1.13 µM | 2.61 µM | 6.56 µM | 0.204 µM | > 50 µM | 0.8 µM | > 17.6 µM | 2.06 µM | 11.1 µM |
| CC(=O)[O][Pb]([O]C(C)=O)([c]1ccccc1)[c]1ccccc1 | 0.657 µM | 7.46 µM | 3.53 µM | > 100 µM | 2.35 µM | 13.4 µM | 2.4 µM | > 100 µM | > 100 µM | > 100 µM | 23.4 µM | > 100 µM | 13.7 µM | > 100 µM | 35 µM | > 100 µM | 14.5 µM | > 100 µM | > 100 µM | > 100 µM |
| O=C1c2ccccc2C(=O)N1CC1(C(=O)O)NCCS1(=O)=O (stereo not given) |  | > 100 µM |  | > 100 µM |  | > 100 µM |  | > 100 µM |  | > 100 µM |  | > 100 µM |  | > 100 µM |  | > 100 µM |  | > 100 µM |  | > 100 µM |
| Cc1ccc(C(=O)Nc2ccc(S(=O)(=O)O)c3cc(S(=O)(=O)O)cc(S(=O)(=O)O)c23)cc1NC(=O)c1cccc(N)c1 |  | > 100 µM |  | > 100 µM |  | > 100 µM |  | > 100 µM |  | > 100 µM |  | > 100 µM |  | > 100 µM |  | > 100 µM |  | > 100 µM |  | > 100 µM |
| Nc1ncnc2sc(=S)c3c(c12)CCC3 | 47.1 µM | > 100 µM | 46.6 µM | > 100 µM | 21.1 µM | 56.8 µM | 30.7 µM | > 100 µM | 69.8 µM | > 100 µM | 28.2 µM | 79.5 µM | 30.9 µM | > 100 µM | 23.2 µM | 69.7 µM | 29.8 µM | 62.8 µM | 44.8 µM | > 100 µM |
